Our source for the IC50 and insulin sensitivity values is US8048908B2, “11β-hydroxysteroid dehydrogenase type 1 active compounds” (High Point Pharmaceuticals, LLC, priority 2006, dated 2011).

The target of one test is T1, h-11βHSD1 (Homo sapiens, UniProt P28845).
T1 construct: made in house
Put plainly: 11βHSD1 Enzyme Assay (scintillation proximity assay). Type of test: biochemical. Particulars: yeast extract expressing h-11βHSD1, 120 nM 3H-cortisone, 4 mM β-NADPH, 60 min at 30° C. How it is done:
^3H-cortisone and anti-rabbit Ig coated scintillation proximity assay (SPA) beads were purchased from Amersham Pharmacia Biotech, —NADPH was from Sigma and rabbit anti-cortisol antibodies were from Fitzgerald. An extract of yeast transformed with h-11βHSD1 (Hult et al., FEBS Lett., 441, 25 (1998)) was used as the source of enzyme. The test compounds were dissolved in DMSO (10 mM). All dilutions were performed in a buffer containing 50 mM TRIS-HCl (Sigma Chemical Co), 4 mM EDTA (Sigma Chemical Co), 0.1% BSA (Sigma Chemical Co), 0.01% Tween-20 (Sigma Chemical Co) and 0.005% bacitracin (Novo Nordisk A/S), pH=7.4. Optiplate 96 wells plates were supplied by Packard. The amount of ^3H-cortisol bound to the SPA beads was measured on Top-Count NXT, Packard.
h-11βHSD1, 120 nM ^3H-cortisone, 4 mM β-NADPH, antibody (1:200), serial dilutions of test compound and SPA particles (2 mg/well) were added to the wells. The reaction was initiated by mixing the different components and was allowed to proceed under shaking for 60 min at 30° C. The reaction was stopped be the addition of 10 fold excess of a stopping buffer containing 500 μM carbenoxolone and 1 μM cortisone. Data was analysed using GraphPad Prism software.

The next test deals with T2, 11βHSD1 (Homo sapiens, UniProt P28845).
T2 construct: host or cells: human subjects (in vivo)
The settings on record: lean healthy volunteers and people with type 2 diabetes; cited from earlier work.

T1 sequence (P28845 whole entry): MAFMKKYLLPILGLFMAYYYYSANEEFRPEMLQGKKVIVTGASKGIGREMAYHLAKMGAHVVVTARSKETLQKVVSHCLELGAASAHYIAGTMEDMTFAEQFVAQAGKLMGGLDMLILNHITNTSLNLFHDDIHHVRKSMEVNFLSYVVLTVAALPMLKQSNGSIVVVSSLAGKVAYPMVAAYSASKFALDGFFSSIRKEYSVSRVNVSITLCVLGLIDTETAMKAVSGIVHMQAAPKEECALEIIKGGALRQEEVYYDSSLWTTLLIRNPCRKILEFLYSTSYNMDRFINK
T2 sequence (P28845 whole entry): as above

Turning to `CC1(C)CC2CC(C)(CN2C(=O)c2ccc(N3CCC(C(=O)NC4CCC(O)CC4)C3)cc2)C1` (stereo not shown) [Example 1-7, 1-[4-(1,3,3-Trimethyl-6-aza-bicyclo[3.2.1]octane-6-carbonyl)-phenyl]-pyrrolidine-3-carboxylic acid (4-hydroxy-cyclohexyl)-amide], half-maximal inhibition against h-11βHSD1 (IC50) required 0.125 µM.

Compound `CN(C(=O)C1CC1)C1CCN(c2ccc(C(=O)N3CC4CCC(CC4)C3)cc2)C1` (stereo not shown) [Example 1-31, Cyclopropanecarboxylic acid {1-[4-(3-aza-bicyclo[3.2.2]-nonane-3-carbonyl)-phenyl]-pyrrolidin-3-yl}-methyl-amide] registered an IC50 at h-11βHSD1 of 0.128 µM. This IC50 and that of the compound before are within 1.5-fold of each other.

`CN(C1CCN(c2ccc(C(=O)N3CC4CCC(CC4)C3)cc2)C1)S(=O)(=O)Cc1ccccc1` (stereo not shown) [Example 1-33, N-{1-[4-(3-Aza-bicyclo[3.2.2]-nonane-3-carbonyl)-phenyl]-pyrrolidin-3-yl}-N-methyl-phenyl-methanesulfonamide] came in with an IC50 against h-11βHSD1 of 0.043 µM.

On to `CC1(C)[C@@H](OC(=O)CCC(=O)O)CC[C@]2(C)[C@H]3C(=O)C=C4[C@@H]5C[C@@](C)(C(=O)O)CC[C@]5(C)CC[C@@]4(C)[C@]3(C)CC[C@@H]12` [carbenoxolone], for which the insulin sensitivity entry at 11βHSD1 is given as “improves insulin sensitivity”.
